Common to all, as to type: toxicity, cell-based
One series relates to U2OS. Put plainly: Incucyte cell viability with U2OS. The conditions noted are these: human, 10 µM, compound concentration 10 uM.
The next series deals with HEK-293T. Put plainly: Incucyte cell viability with HEK293T. The conditions noted are these: human, 10 µM, compound concentration 10 uM.
For a further series, the system named is Fibroblast. In words: Incucyte cell viability with human fibroblast. The conditions noted are these: 10 µM, compound concentration 10 uM.

Structures are written as SMILES. Several values for one entry are separate records, joined by “and”; a condition that tells them apart may be missing. Equal values may be shown once.
Also: unitless GR value; below 1 slowed growth and below 0 cell loss.

Take `COc1cc(OC)cc(-c2cc3cnc(N)nc3nc2NC(=O)NC(C)(C)C)c1`: the “Growth Rate” value in the series on U2OS (0 h, replicate number 2) was 0.36 and 0.2; in the series with U2OS (6 h, replicate number 1) it was 0.92; in the series on U2OS (12 h, replicate number 1) it was 0.8; in the series on U2OS (18 h, replicate number 1), 0.67 and 0.9; with U2OS (24 h, replicate number 1), 0.91; with HEK-293T (0 h, replicate number 2) it was -0.38. Besides, the “Growth Rate” value with HEK-293T (6 h, replicate number 1) was 0.92; in the series on HEK-293T (12 h, replicate number 1), 0.8; in the series on HEK-293T (18 h, replicate number 1), 0.71; in the series on HEK-293T (18 h, replicate number 2) it was 0.36 and 0.62; in the series with HEK-293T (24 h, replicate number 1), 0.65 and 0.98; in the series with HEK-293T (24 h, replicate number 2) it was 0.38 and 0.68. In addition, the “Growth Rate” value was 0.79 with Fibroblast (0 h, replicate number 2); -0.05 in the series on Fibroblast (6 h, replicate number 1); 0.11 in the series on Fibroblast (6 h, replicate number 2); 0.45 in the series on Fibroblast (18 h, replicate number 2); 0.45 in the series with Fibroblast (24 h, replicate number 2).

Take `O=C(CCCN1CCC(O)(c2ccc(Cl)cc2)CC1)c1ccc(F)cc1` [HALOPERIDOL]: the “Growth Rate” value with U2OS (0 h, replicate number 1) is reported as 0.26; with U2OS (0 h, replicate number 2) it was 0.79; in the series with U2OS (6 h, replicate number 2), 0.98; in the series on U2OS (12 h, replicate number 1), -0.1; in the series with U2OS (18 h, replicate number 2) it was 1; in the series on HEK-293T (0 h, replicate number 2), -0.68. Besides, the “Growth Rate” value with HEK-293T (6 h, replicate number 2) is on record as 0.42; with HEK-293T (12 h, replicate number 2), 0.63; with HEK-293T (18 h, replicate number 2), 0.65; in the series with HEK-293T (24 h, replicate number 2) it was 0.75; with Fibroblast (6 h, replicate number 1), 0.04; in the series on Fibroblast (6 h, replicate number 2), -0.32. Besides, the “Growth Rate” value is listed as 0.4 with Fibroblast (12 h, replicate number 1); -0.02 with Fibroblast (12 h, replicate number 2); 0.49 with Fibroblast (18 h, replicate number 1); 0.22 in the series with Fibroblast (18 h, replicate number 2); 0.65 in the series on Fibroblast (24 h, replicate number 1); 0.4 in the series with Fibroblast (24 h, replicate number 2).

For `CNC(=O)c1cc(C(=O)NC2CC2)cn(Cc2ccccc2)c1=O` [GSK620], the “Growth Rate” value in the series with U2OS (0 h, replicate number 1) is -0.46; with U2OS (6 h, replicate number 1), 0.54; in the series with U2OS (6 h, replicate number 2), 0.92; with U2OS (12 h, replicate number 1), 0.69; in the series with U2OS (18 h, replicate number 1) it was 0.66; in the series on U2OS (24 h, replicate number 1), 0.88. Further, the “Growth Rate” value in the series with HEK-293T (0 h, replicate number 1) is on record as -0.72; in the series on HEK-293T (0 h, replicate number 2), 0.91; with HEK-293T (6 h, replicate number 2), 0.74; with HEK-293T (12 h, replicate number 2), 0.76; in the series on HEK-293T (18 h, replicate number 2), 0.99; in the series on HEK-293T (24 h, replicate number 1) it was 0.93. Moreover, the “Growth Rate” value with HEK-293T (24 h, replicate number 2) amounted to 0.8; with Fibroblast (0 h, replicate number 1), 0.38; with Fibroblast (6 h, replicate number 2), 0.25.

Regarding `CC(C)Oc1ccc(-c2cnc3c(-c4ccnc5ccccc45)cnn3c2)cc1`, the “Growth Rate” value is -0.36 with U2OS (0 h, replicate number 1); 0.23 in the series with U2OS (6 h, replicate number 2); 0.74 with U2OS (12 h, replicate number 2); 0.79 in the series on U2OS (18 h, replicate number 2); 0.97 with U2OS (24 h, replicate number 2); 0.99 with HEK-293T (0 h, replicate number 2). The “Growth Rate” value is given as -0.63 in the series on HEK-293T (6 h, replicate number 1); -0.46 in the series on HEK-293T (12 h, replicate number 1); -0.07 in the series on HEK-293T (18 h, replicate number 1); 0.3 in the series with HEK-293T (24 h, replicate number 1); -0.98 with Fibroblast (0 h, replicate number 2); 0.72 in the series with Fibroblast (6 h, replicate number 1). The “Growth Rate” value with Fibroblast (12 h, replicate number 1) is recorded as -1; with Fibroblast (18 h, replicate number 1), 0.49.

`Cc1c(C(=O)Nc2cccc(C(F)(F)F)c2)cc(-c2ccccc2)n1CCCN1CCOCC1.Cl`: the “Growth Rate” value is on record as 0.27 in the series with U2OS (0 h, replicate number 1); 0.89 in the series on U2OS (12 h, replicate number 2); 0.88 in the series on U2OS (18 h, replicate number 2); 0.95 with U2OS (24 h, replicate number 2); -0.17 in the series on HEK-293T (6 h, replicate number 1); -0.54 with HEK-293T (6 h, replicate number 2). The “Growth Rate” value in the series on HEK-293T (12 h, replicate number 1) is reported as 0.11; with HEK-293T (12 h, replicate number 2), 0.01; in the series with HEK-293T (18 h, replicate number 1), 0.32; in the series on HEK-293T (18 h, replicate number 2) it was 0.27; with HEK-293T (24 h, replicate number 1), 0.46; in the series on HEK-293T (24 h, replicate number 2), 0.37. In addition, the “Growth Rate” value with Fibroblast (6 h, replicate number 1) was -0.95; in the series with Fibroblast (6 h, replicate number 2), 0.1; in the series on Fibroblast (12 h, replicate number 2), 0.65; in the series on Fibroblast (18 h, replicate number 2) it was 0.73; with Fibroblast (24 h, replicate number 2) it was 0.84.

In the case of `CC1CNCCc2c1nc1ccnn1c2N1CC(C(=O)N2CCC(C)(C)C2)C1` (stereo not given), the “Growth Rate” value in the series on U2OS (0 h, replicate number 1) came to 0.03; in the series with U2OS (6 h, replicate number 1), 0.99; in the series with U2OS (12 h, replicate number 1), 0.75; in the series on U2OS (18 h, replicate number 1) it was 0.86; with U2OS (24 h, replicate number 1), 0.98; with HEK-293T (6 h, replicate number 2) it was 0.99. Further, the “Growth Rate” value in the series on Fibroblast (0 h, replicate number 1) was -1; in the series with Fibroblast (6 h, replicate number 1) it was 0.73; in the series on Fibroblast (6 h, replicate number 2) it was -0.38; in the series with Fibroblast (12 h, replicate number 1), 0.56; in the series with Fibroblast (12 h, replicate number 2) it was 0.76; in the series with Fibroblast (18 h, replicate number 1), 0.7. Also, the “Growth Rate” value in the series with Fibroblast (18 h, replicate number 2) is reported as 0.74; with Fibroblast (24 h, replicate number 1), 0.84; in the series on Fibroblast (24 h, replicate number 2), 0.97.

Regarding `CN(C)c1ccc(-c2cc3ncccc3c(OCCCCO)n2)cc1.O=C(O)C(F)(F)F`, the “Growth Rate” value with U2OS (0 h, replicate number 1) is given as -1; in the series on U2OS (6 h, replicate number 2), -0.83; in the series on U2OS (12 h, replicate number 1) it was 0.85; in the series on U2OS (12 h, replicate number 2), 0.55; in the series with U2OS (18 h, replicate number 1), 0.66; with U2OS (18 h, replicate number 2) it was 0.67. The “Growth Rate” value is 0.91 with U2OS (24 h, replicate number 1); 0.64 in the series on U2OS (24 h, replicate number 2); -0.94 with HEK-293T (0 h, replicate number 1); -0.26 in the series on HEK-293T (0 h, replicate number 2); 0.87 with HEK-293T (24 h, replicate number 2); -0.45 with Fibroblast (0 h, replicate number 2). The “Growth Rate” value with Fibroblast (6 h, replicate number 2) is given as 0.29; in the series on Fibroblast (12 h, replicate number 2), 0.37; in the series with Fibroblast (18 h, replicate number 2) it was 0.6; in the series on Fibroblast (24 h, replicate number 2) it was 0.65.

As to `CCc1cc2c(cc1N1CCC(N3CCOCC3)CC1)C(C)(C)c1[nH]c3cc(C#N)ccc3c1C2=O` [ALECTINIB], the “Growth Rate” value in the series on U2OS (6 h, replicate number 1) is 0.77; with U2OS (6 h, replicate number 2), 0.78; with U2OS (12 h, replicate number 2) it was 0.78; in the series with U2OS (18 h, replicate number 2), 1; with U2OS (24 h, replicate number 1) it was 0.91; in the series with U2OS (24 h, replicate number 2), 0.94. In addition, the “Growth Rate” value in the series on HEK-293T (6 h, replicate number 1) worked out at 0.56; in the series on HEK-293T (6 h, replicate number 2) it was 0.59; in the series on HEK-293T (12 h, replicate number 1), 0.83; in the series on HEK-293T (12 h, replicate number 2), 0.86; in the series with HEK-293T (18 h, replicate number 1), 0.95; in the series on Fibroblast (6 h, replicate number 2) it was 0.58. For the same compound, in the series with Fibroblast (24 h, replicate number 2), the “Growth Rate” value turned out to be 0.89.

For the compound `O=C(Nc1ccc(Oc2ccc(Cl)cc2)c(Cl)c1)c1cc(I)cc(I)c1O` [RAFOXANIDE], the “Growth Rate” value in the series on U2OS (0 h, replicate number 1) was 0.6; with U2OS (0 h, replicate number 2), -1; with U2OS (6 h, replicate number 1) it was 0.57; in the series with U2OS (12 h, replicate number 1), 0.92; in the series with U2OS (12 h, replicate number 2) it was 0.74; in the series on U2OS (18 h, replicate number 1), 0.88. Further, the “Growth Rate” value in the series with HEK-293T (6 h, replicate number 1) is -0.37; in the series with HEK-293T (6 h, replicate number 2), 0.49; in the series with HEK-293T (12 h, replicate number 1), -0.61; in the series on HEK-293T (12 h, replicate number 2) it was 0.91; in the series with HEK-293T (18 h, replicate number 1), -0.55; in the series with HEK-293T (24 h, replicate number 1) it was -0.48. Moreover, the “Growth Rate” value is -0.93 in the series with Fibroblast (0 h, replicate number 2); -0.56 in the series with Fibroblast (6 h, replicate number 1); -1 with Fibroblast (12 h, replicate number 1).

On to `O=C(Nc1cc(C(F)(F)F)cc(C(F)(F)F)c1)c1cc(Cl)ccc1O` [IMD-0354], for which the “Growth Rate” value with U2OS (0 h, replicate number 1) is given as -0.14; with U2OS (0 h, replicate number 2), -1; in the series on U2OS (6 h, replicate number 1), 0.76; in the series on U2OS (6 h, replicate number 2), -0.23; with U2OS (12 h, replicate number 1), 0.7; in the series with U2OS (12 h, replicate number 2), 0.03. In addition, the “Growth Rate” value in the series on U2OS (18 h, replicate number 1) is 0.69; in the series on U2OS (18 h, replicate number 2), 0.18; with U2OS (24 h, replicate number 1) it was 0.71; in the series on U2OS (24 h, replicate number 2), 0.26; in the series on HEK-293T (6 h, replicate number 1), 0.18; in the series on HEK-293T (6 h, replicate number 2), -0.86. Moreover, the “Growth Rate” value is 0.81 with HEK-293T (12 h, replicate number 1); -0.2 in the series with HEK-293T (12 h, replicate number 2); 0.76 with HEK-293T (18 h, replicate number 1); 0.17 in the series with HEK-293T (18 h, replicate number 2); 0.36 in the series on HEK-293T (24 h, replicate number 2); -0.62 with Fibroblast (0 h, replicate number 1). Further, the “Growth Rate” value in the series with Fibroblast (0 h, replicate number 2) is listed as -0.02; with Fibroblast (6 h, replicate number 2), -1; in the series on Fibroblast (12 h, replicate number 2) it was -0.61; in the series on Fibroblast (18 h, replicate number 1), -0.63; in the series with Fibroblast (18 h, replicate number 2), -0.45; in the series with Fibroblast (24 h, replicate number 1), 0.42. For the same compound, the “Growth Rate” value in the series on Fibroblast (24 h, replicate number 2) is on record as -0.33.

The values are drawn from ChEMBL document CHEMBL5303304, “EUbOPEN Chemogenomics Library - IncuCyte” (2023).
